Earlier results as cited in patent US6683094B2, “Antihistaminic piperidine derivatives and intermediates for the preparation thereof” (Aventis Pharmaceuticals Inc., priority 1998, dated 2004).

Conditions: to two primary metabolites (fexofenadine and an inactive dealkylated metabolite)

first pass metabolism: 99%
Compound: CC(C)(C)c1ccc(C(O)CCCN2CCC(C(O)(c3ccccc3)c3ccccc3)CC2)cc1 (stereo not drawn) [Terfenadine, α-[4-(1,1-dimethylethyl)phenyl]-4-(hydroxydiphenylmethyl)-1-piperidinebutanol]
